Experimental findings from patent US7189680B2, “5-halo-6-aryl[1,2,4]triazolo[1,5-a]pyrimidin-7-amines” (Bayer Cropscience AG, priority 2001, dated 2007) are described below.

Structures are written as SMILES.

A short description of the first data set: logP determination by HPLC (EEC directive 79/831 Annex V. A8). The data set is classed as physicochemical. The note with it: HPLC gradient method, acetonitrile/0.1% aqueous phosphoric acid; Table 1. Here is the method:
*) The logP values were determined in accordance with EEC directive 79/831 Annex V. A8 by HPLC (gradient method, acetonitrile/0.1% aqueous phosphoric acid)
In the case of `Fc1c(F)c(F)c(-c2c(Cl)nc3ncnn3c2NOCc2ccc(Cl)cc2Cl)c(F)c1F` [Example 114], the “logP*” value stood at 4.02.
As to `CON(C)c1c(-c2c(F)cc(F)cc2F)c(Cl)nc2ncnn12` [Example 16], the “logP*” value was 2.63.
Still for that read-out and setting: the figure for `Fc1cccc(F)c1-c1c(Cl)nc2ncnn2c1NOCc1ccccc1Cl` [Example 106] is 3.07.
On the same count and under the same terms, the value for `CC(C)N(N)c1c(-c2c(F)cc(F)cc2F)c(Cl)nc2ncnn12` [Example 133] was 2.62; that for `CC(C)CONc1c(-c2c(F)cc(F)cc2F)c(Cl)nc2ncnn12` [Example 79] was 3.
The same measure, in the same setting: the value for `Fc1ccccc1-c1c(Cl)nc2ncnn2c1NOCc1ccccc1` [Example 95] was 2.83.
Turning to `CCC(C)NNc1c(-c2cc(C(F)(F)F)ccc2Cl)c(Cl)nc2ncnn12` (stereo not drawn) [Example 149], the “logP*” value stood at 3.47.
With `CC(C)ONc1c(-c2ccccc2F)c(Cl)nc2ncnn12` [Example 98], the “logP*” value is 2.42.
Same read-out and setting: the value for `Fc1cc(F)c(-c2c(Cl)nc3ncnn3c2NOCc2ccccc2)c(F)c1` [Example 12] was 2.92; that for `CC(C)(O)CNNc1c(-c2c(F)cc(F)cc2F)c(Cl)nc2ncnn12` [Example 53] was 2.09; that for `CC(C)(C)ONc1c(-c2c(F)c(F)c(F)c(F)c2F)c(Cl)nc2ncnn12` [Example 75] was 3.24.
Still for that read-out and setting: the figure for `CCCCN(N)c1c(-c2c(F)cc(F)cc2F)c(Cl)nc2ncnn12` [Example 132] is 2.96; for `CONc1c(-c2c(F)cccc2F)c(Cl)nc2ncnn12` [Example 32] it is 1.92.
On the same count and under the same terms, the figure for `CCNNc1c(-c2ccccc2F)c(Cl)nc2ncnn12` [Example 89] is 2.06.
For the molecule `CCC(C)ONc1c(-c2c(F)cc(F)cc2F)c(Cl)nc2ncnn12` (stereo not drawn) [Example 41], the “logP*” value is reported as 2.86.
`NN(CC1CCC1)c1c(-c2c(F)cc(F)cc2F)c(Cl)nc2ncnn12` [Example 169]: the “logP*” value is given as 3.06.
The same measure, in the same setting: the value for `CC(C)CN(N)c1c(-c2c(F)cccc2Cl)c(Cl)nc2ncnn12` [Example 138] was 2.94; that for `CC(C)CONc1c(-c2c(F)cccc2F)c(Cl)nc2ncnn12` [Example 8] was 2.78.
Still for that read-out and setting: the value for `Fc1cc(F)c(-c2c(Cl)nc3ncnn3c2NNC2CCCC2)c(F)c1` [Example 55] was 2.98.
On the same count and under the same terms, the value for `CC(C)CNNc1c(-c2c(Cl)c(F)cc(C(F)(F)F)c2Cl)c(Cl)nc2ncnn12` [Example 44] was 3.89; that for `CCONc1c(-c2ccccc2F)c(Cl)nc2ncnn12` [Example 57] was 2.13.
Regarding `CCC(C)N(N)c1c(-c2cccc3c2OC(F)(F)O3)c(Cl)nc2ncnn12` (stereo not drawn) [Example 150], the “logP*” value is 3.27.
For the molecule `Fc1c(F)c(F)c(-c2c(Cl)nc3ncnn3c2NOCc2c(Cl)cccc2Cl)c(F)c1F` [Example 120], the “logP*” value was 3.65.
On the same count and under the same terms, the value for `Fc1ccc(CONc2c(-c3c(F)cccc3F)c(Cl)nc3ncnn23)cc1` [Example 107] was 2.86; that for `NN(CCN1CCOCC1)c1c(-c2c(F)cc(F)cc2F)c(Cl)nc2ncnn12` [Example 129] was 1.1; that for `Fc1ccc(CONc2c(-c3c(F)c(F)c(F)c(F)c3F)c(Cl)nc3ncnn23)cc1` [Example 72] was 3.3.
On to `CCC(C)N(N)c1c(-c2cccc(C(F)(F)F)c2Cl)c(Cl)nc2ncnn12` (stereo not drawn) [Example 144], for which the “logP*” value was found to be 3.44.
With `CN(O)c1c(-c2c(F)cc(F)cc2F)c(Cl)nc2ncnn12` [Example 123], the “logP*” value stood at 1.99.
Consider `CNN(C)c1c(-c2ccccc2F)c(Cl)nc2ncnn12` [Example 88], for which the “logP*” value was 2.13.
On to `CC(C)CN(N)c1c(-c2c(F)cccc2F)c(Cl)nc2ncnn12` [Example 170], for which the “logP*” value is reported as 2.72.
The same measure, in the same setting: the value for `CCONc1c(-c2c(F)cc(F)cc2F)c(Cl)nc2ncnn12` [Example 40] was 2.33; that for `NN(CC1CC1)c1c(-c2c(F)cccc2Cl)c(Cl)nc2ncnn12` [Example 162] was 2.63; that for `NN(c1c(-c2c(Cl)cccc2Cl)c(Cl)nc2ncnn12)C1CCCC1` [Example 161] was 3.37.
Same read-out and setting: the value for `CONc1c(-c2c(F)c(F)c(F)c(F)c2F)c(Cl)nc2ncnn12` [Example 121] was 2.53; that for `Fc1c(F)c(F)c(-c2c(Cl)nc3ncnn3c2NOCc2cccc(C(F)(F)F)c2)c(F)c1F` [Example 118] was 3.72; that for `Fc1cc(F)c(-c2c(Cl)nc3ncnn3c2NOCc2nc(-c3ccccc3)cs2)c(F)c1` [Example 9] was 3.21.
The same measure, in the same setting: the figure for `Fc1c(F)c(F)c(-c2c(Cl)nc3ncnn3c2NOCc2ccc(C(F)(F)F)cc2)c(F)c1F` [Example 115] is 3.77.
`Fc1cc(F)c(-c2c(Cl)nc3ncnn3c2NOCc2ccc(OC(F)(F)F)cc2)c(F)c1` [Example 11]: the “logP*” value was found to be 3.54.
Turning to `CC(C)ON(C)c1c(-c2c(F)cccc2F)c(Cl)nc2ncnn12` [Example 34], the “logP*” value is 3.01.
With `CCC(C)NNc1c(-c2c(Cl)cccc2Cl)c(Cl)nc2ncnn12` (stereo not drawn) [Example 154], the “logP*” value was determined as 3.14.
Same read-out and setting: the value for `Fc1cccc(F)c1-c1c(Cl)nc2ncnn2c1NOC1CCCCO1` (stereo not drawn) [Example 51] was 2.43; that for `COC(=O)N(C)Nc1c(-c2ccccc2F)c(Cl)nc2ncnn12` [Example 93] was 1.8; that for `Fc1cccc(F)c1-c1c(Cl)nc2ncnn2c1NOCc1ccccc1` [Example 103] was 2.8.
Take `CCONc1c(-c2c(F)cccc2F)c(Cl)nc2ncnn12` [Example 102]: the “logP*” value is 2.18.
Same read-out and setting: the figure for `Fc1cc(F)c(-c2c(Cl)nc3ncnn3c2NOC2CCCC2)c(F)c1` [Example 14] is 2.94; for `Fc1ccccc1-c1c(Cl)nc2ncnn2c1NOCc1cccc(C(F)(F)F)c1` [Example 99] it is 3.34.
As to `Fc1c(F)c(F)c(-c2c(Cl)nc3ncnn3c2NOC2CCCCO2)c(F)c1F` (stereo not drawn) [Example 76], the “logP*” value turned out to be 3.04.
For `CC(C)CCNNc1c(-c2c(F)cc(F)cc2F)c(Cl)nc2ncnn12` [Example 78], the “logP*” value is reported as 3.25.

The same data set, now with this note: HPLC; preparation examples; read-out: HPLC: logP.
For the molecule `CC(C)(C)ONc1c(-c2c(F)cccc2F)c(Cl)nc2ncnn12` [Example 2, 7-(tert-butoxyamino)-5-chloro-6-(2,6-difluorophenyl)[1,2,4)triazolo[1,5-a]pyrimidine], the chromatographic logP stood at 2.59.
The same measure, in the same setting: the value for `C[C@H](N(SC(F)(Cl)Cl)c1c(-c2c(F)cc(F)cc2F)c(Cl)nc2ncnn12)C(F)(F)F` [Example 3, 5-chloro-7-{{[dichloro(fluoro)methyl]sulphanyl}[(1S)-2,2,2-trifluoro-1-methylethyl]amino}-6-(2,4,6-trifluorophenyl)[1,2,4]triazolo[1,5-a]pyrimidine] was 4.74.

Still in this data set, the particulars now being: Table 2, carbamates of formula (VIII).
Usually logP stands for a log measure of how a compound divides between an organic and an aqueous phase. Consider `CCOC(=O)N(CC(C)C)OC` [Example 178], for which the logP turned out to be 2.38.
